Experimental data published in patent US7705001B2, “Therapeutic substituted gamma lactams” (Allergan, Inc, priority 2008, dated 2010).

Tested on: lashes and adjacent hairs of patients
Experiment: Lash and hair growth observed in glaucoma patients treated in one eye
Format: in vivo, human
Details: glaucoma patient treated in only one eye
Text: In the course of treating patients having glaucoma, treatment may only be appropriate in one eye. […] The lash appearance on the lids of the treated eyes would have appeared quite attractive if it represented a bilateral phenomenon. As a result of its asymmetric nature, the long lashes on one side could be construed as disturbing from a cosmetic standpoint. A systemic examination was preformed as a result of the asymmetric phenomenon. It soon became apparent that this altered appearance was not an isolated finding. […] Definite differences could be identified to varying degrees in the lashes and adjacent hairs of all patients who were taking the drug on a unilateral basis for longer than 6 months.
The changes in the lashes were apparent on gross inspection in several patients once attention was focused on the issue. In those with light colored hair and lashes, the differences were only seen easily with the aid of the high magnification and lighting capabilities of the slit lamp biomicroscope. In the course of glaucoma follow-up examination, attention is generally immediately focused on the eye itself. As a result of the high power magnification needed only one eye is seen at a time and the eye is seen at a high enough power that the lashes are not in focus. […]

CCNC(=O)CCC/C=C\C[C@@H]1[C@@H](/C=C/[C@@H](O)CCc2ccccc2)[C@H](O)C[C@@H]1O [bimatoprost]
lash appearance in treated eye versus non-treated eye: longer, thicker, and fuller in the treated eye than in the non-treated eye
